# Test results reported in patent US4816467A, “Heteroaryl 3-oxo-propanenitrile derivatives, pharmaceutical compositions and use” (Farmitalia Carlo Erba s.r.l, priority 1987, dated 1989).
# Tests used:
# S. flexneri = test: Activity on S. flexneri infection in mice; type: in vivo; details: infection 3 × LD50 i.p., controls 100
# Protocol: (§1) The compound of the present invention 2-cyano-3-(1,4-dihydro-1-phenyl-[1]-benzothiopyrano[4,3-c]pyrazol-3-yl)-3- oxo-N-phenyl-propanamide (internal code FCE 24578), for instance, was tested, according to the procedure described by Cleeland R., Grunberg E. 1986, 825-876, "Antibiotics in Laboratory Medicine" Lorian V. Editor (Williams and Wilkins), in the following models of infection: L. monocytogenes; D. pneumoniae; S. flexneri and P. aeruginosa; the last one being performed in cyclophosphamide immunosuppressed mice, according to Cryz S. J., Furer E., Germanier R., 1983, Infect. Imm., 39, 1067-1071.
# (§2) Activity of FCE 24578 on S. flexneri and D. pneumoniae
# (§3) Infection (3 × LD50) was given i.p.
# (§4) Treatments with FCE 24578 or vehicle were performed on -3, -2, -1 and 0
# D. pneumoniae = test: Activity on D. pneumoniae infection in mice; type: in vivo; details: infection 3 × LD50 i.p.
# Protocol: as §1, §2, §3, §4
# MST = Mean Survival Time.
# *= significant for p < 0.01.
# L. monocytogenes = test: Activity on L. monocytogenes infection in mice; type: in vivo; details: L. monocytogenes 1 × LD50 i.v., controls 75
# Protocol: as §1
# Activity of FCE 24578 on L. monocytogenes infection
# Treatments with FCE 2457B or vehicle were performed on -3, -2, -1 and 0
# day before the infection (1 × LD50) given i.v.
# P. aeruginosa = test: Activity on P. aeruginosa infection in immunosuppressed mice; type: in vivo; details: cyclophosphamide immunosuppressed; for % mortality 1 × LD50: P. aeruginosa 1 × LD50 i.v., controls 80; for % mortality 2 × LD50: P. aeruginosa 2 × LD50 i.v., controls 90
# Protocol: as §1
# Activity of FCE 24578 on P. aeruginosa infection
# in immunosuppressed mice
# Cyclophosphamide (200 mg/kg) was administered i.p. on the fourth day
# The treatments with FCE 24578 or vehicle were performed on -3, -2, -1 and
# 0 day before the infection (2 × LD50 and 1 × LD50)
# [1] = approximate acute toxicity (LD50) in the mouse, per os; details: in vivo, po, single administration of increasing doses, measured on the seventh day
# Protocol: For example, the approximate acute toxicity (LD50) in the mouse of the compounds 2-cyano-3-(1,4-dihydro-1-phenyl-[1]-benzopyrano[4,3-c]pyrazol-3-yl)-3-oxo- N-phenyl-propanamide, and 2-cyano-3-(1,4-dihydro-1-phenyl-[1]-benzothiopyrano[4,3-c]pyrazol-3-yl)-3- oxo-N-phenyl-propanamide, determined per os with single administration of increasing doses and measured on the seventh day after the day of treatment, is higher than 800 mg/kg. Analogous toxicity data have been found for the other compounds of the invention.
Compound,"% mortality (S. flexneri; 10 mg/kg i.p. on -3, -2, -1 and 0 day before infection)","% mortality (S. flexneri; 50 mg/kg i.p. on -3, -2, -1 and 0 day before infection)","MST (Mean Survival Time) (D. pneumoniae; 10 mg/kg i.p. on -3, -2, -1 and 0 day before infection, controls 3.1)","MST (Mean Survival Time) (D. pneumoniae; 50 mg/kg i.p. on -3, -2, -1 and 0 day before infection, controls 3.1, * = significant for p < 0.01)",% mortality 1 × LD50 (L. monocytogenes; 10 mg/kg i.p.),% mortality 1 × LD50 (L. monocytogenes; 50 mg/kg i.p.),% mortality 1 × LD50 (L. monocytogenes; 50 mg/kg p.o.),% mortality 1 × LD50 (L. monocytogenes; 250 mg/kg p.o.),% mortality 1 × LD50 (P. aeruginosa; 10 mg/kg i.p.),% mortality 1 × LD50 (P. aeruginosa; 50 mg/kg i.p.),% mortality 2 × LD50 (P. aeruginosa; 10 mg/kg i.p.),% mortality 2 × LD50 (P. aeruginosa; 50 mg/kg i.p.),LD50 at 168 h [1]
"N#CC(C(=O)Nc1ccccc1)C(=O)c1nn(-c2ccccc2)c2c1CSc1ccccc1-2 (centres unmarked) [FCE 24578, 2-cyano-3-(1,4-dihydro-1-phenyl-[1]-benzothiopyrano[4,3-c]pyrazol-3-yl)-3-oxo-N-phenyl-propanamide]",40%,10%,4 days,5.7 days,12.5%,0%,37.5%,25%,0%,0%,0%,0%,> 800 mg/kg
"N#CC(C(=O)Nc1ccccc1)C(=O)c1nn(-c2ccccc2)c2c1COc1ccccc1-2 (centres unmarked) [FCE 25158, 2-cyano-3-(1,4-dihydro-1-phenyl-[1]-benzopyrano[4,3-c]pyrazol-3-yl)-3-oxo-N-phenyl-propanamide]",–,–,–,–,–,–,–,–,–,–,–,–,> 800 mg/kg
